Measured values reported in US11752120B2, “Use of succinic acid in increasing sensitivity of bacteria to antibiotics” (SUN YAT-SEN UNIVERSITY, priority 2018, dated 2023).
Like-named read-outs stand apart in the source and are kept apart here.

What was measured:
[1] = system: clinical Escherichia coli YT16 and YT28; assay: Viable bacteria count / survival rate after antibiotic with or without succinic acid in M9 medium; assay type: cell-based
Procedure: A single colony of clinical bacteria was picked from a solid LB plate and was inoculated in 5 mL LB liquid medium for culture at 37° C. and 200 rpm for 16 hours, and then was inoculated in 100 mL LB liquid medium at a ratio of 1:100 (v/v) and was cultured at 37° C. until OD600 value was 1.0. 20 mL of bacterial solution was collected and centrifuged at 8000 rpm for 5 minutes, the supernatant was cleared and bacterial cells were washed with an equal volume of 0.85% normal saline, and finally the bacterial cells were suspended with 1×M9 basic medium (containing 10 mM acetate), the OD value of the bacterial solution was adjusted to 0.5, and then 5 mL of the bacterial solution was aliquoted in a test tube for the following experimental studies.
The survival rates of the clinical bacteria in medium with adding succinic acid and without adding succinic acid at the same antibiotic concentration were compared.
The formula is the number of viable bacteria when different concentrations of succinic acid were added/the number of viable bacteria without adding succinic acid×100%.
In order to study whether clinical Escherichia coli has effect on penicillin antibiotics after adding succinic acid, two clinical Escherichia coli samples of YT16 and YT28 were prepared according to step 2 in Embodiment 1, 20 mM succinic acid and 3 kinds of penicillin were added respectively, […], the number of viable bacteria was counted, and the survival rate was calculated. […]

[2] = system: clinical Escherichia coli biofilm; assay: In vitro bactericidal assay of biofilm; assay type: cell-based; details: catheter biofilm, 6 hours; succinic acid 580 mg/kg; ampicillin 2000 mg/kg for YT16, 500 mg/kg for YT28
Procedure: (§1) […] of clinical Escherichia coli (YT3, YT11, YT12, YT16, YT17, YT21, YT22, YT23, YT28, YT33) were picked, monocloned into LB medium, and cultured overnight, then were transferred into 2 mL fresh LB medium at 1:200, and added with a 6 mm PE-50 biological catheter that was sterilized by UV, and cultured in a 37° C. incubator for culture for 24 hours. The bacterial solution was replaced with 1 mL of LB medium daily, and the catheter was continuously cultured for 3 days. The prepared biofilm was washed 5 times with 1 mL of sterile normal saline, and then placed in a 1.5 mL EP tube.
The assay was divided into 4 groups: normal saline control group, succinic acid group, ampicillin group, ampicillin+succinic acid group, and the catheters were treated in a shaker at 37° C. and 200 rpm. A dosage of succinic acid was 580 mg/kg, and a dosage of ampicillin was 2000 mg/kg for YT16, and 500 mg/kg for YT28. After 6 hours, ultrasonic cleaning was conducted for 15 minutes, the biofilm on the catheter was eluted and thoroughly mixed, and after gradient dilution, spot plate counting was performed. The formula for calculating the bacterial survival rate is: number of viable bacteria in each group/number of viable bacteria in the control group×100%.

[3] = system: clinical Escherichia coli biofilm; details: mice
Procedure: as §1
Further, mice were used as test animals, and the prepared clinical Escherichia coli biofilm was implanted into the mouse urethra to construct a mouse chronic urinary tract infection model for conducting an in vivo clinical Escherichia coli clearance test was performed: a 6-mm PE-50 biological catheter of a clinical Escherichia coli biofilm formed by culture for 3 days was implanted into the urethra of a 5-week-old Kunming female mouse (about 20 g). After 48 hours, mice were divided into 2 groups of 5 mice each, which were the ampicillin group and the ampicillin+succinic acid group. […] 24 hours after the last injection, the catheter tube was taken into normal saline to suspend the biofilm bacteria in the ultrasound, and gradient dilution and plate counting were performed to calculate the bacterial survival rate on the catheter biofilm. The calculation formula is the number of viable bacteria in the injection substance group/number of viable bacteria in the control group×100%.

[4] = system: clinical Escherichia coli YT16 and YT28; details: 6 hours (FIG. 9)
Procedure: The cultured bacteria were washed and resuspended in normal saline, OD600 value was adjusted to 1.0, and 1 mL of bacterial cells were taken for ultrasonication, and after centrifugation, the supernatant was taken to determine the antibiotic content. The ampicillin ELISA rapid diagnostic kit (purchased from Shenzhen Lvshiyuan Biotechnology Co., Ltd., with a detection range of 2 to 1000 g/mL) was used for detection and the specific steps are as follows: 50 μL of sample (or standard) and 50 μL of antibody were added into a 96-well plate, mixed gently, and incubated at 25° C. for 30 minutes, and the plate was washed 4 to 5 times; 100 μL of enzyme standard was added, mixed gently, and incubated away from light at 25° C. for 30 minutes, and the plate was washed 4 to 5 times; 50 μL of substrates A and B was added respectively, mixed gently, and incubated away from light at 25° C. for 15 minutes; and finally, a stop solution was added to stop the reaction, and an enzyme-labeled instrument was set to measure the absorbance of the reaction product at 450 nm. A standard curve was drawn, with the percent absorbance of the standard as an ordinate and semi-log of the concentration of the ampicillin standard (ng/mL) as the abscissa. AMP actual concentration=sample detection concentration xdilution multiple.

[5] = system: clinical Escherichia coli YT16 and YT28; details: 6 hours (FIG. 10)
Procedure: A concentration of the treated bacteria was adjusted to 106 CFU/mL, 1 mL of the treated bacteria was taken and transferred into a 1.5 mL EP tube, 10 μL of 3 mM DiOC2 (3,3′-diethyloxa-carbocyanine iodide) was added, and oscillation and incubation were performed for 30 minutes after mixing sufficiently. The bacteria were transferred to a flow cytometry analysis tube before use on the machine, a FACSCalibur flow cytometer (Becton Dickinson, San Jose, Calif., USA) was used for detection, and parameter settings were performed according to the instrument operating procedures. The dye DiOC2 (3) has a green fluorescence excitation wavelength of 488 nm, an emission wavelength of 530 nm, a red fluorescence excitation wavelength of 488 nm, and an emission wavelength of 610 nm. The ratio of the red light intensity to the green light intensity indicates the intensity of the membrane potential, and calculation formula of the proton motive force (PMF) value is LOG (10^3/2*Y mean/X mean). Y mean and X mean represent red light intensity and green light intensity, respectively. Determination was performed according the instructions of the BacLight bacterial membrane potential kit (Invitrogen) kit.

[6] = YT16, 10 mg/mL ampicillin + 1.25 mM succinic acid, 4 hours (FIG. 3)
[7] = YT16, 10 mg/mL ampicillin + 20 mM succinic acid, 4 hours (FIG. 3)
[8] = YT28, 10 mg/mL ampicillin + 1.25 mM succinic acid, 4 hours (FIG. 3)
[9] = YT28, 10 mg/mL ampicillin + 20 mM succinic acid, 4 hours (FIG. 3)

O=C(O)CCC(=O)O [succinic acid]
survival rate ([1]; YT16, 2.5 mg/mL ampicillin after adding 20 mM succinic acid, 4 hours): 30.06%
survival rate ([1]; YT16, 5 mg/mL ampicillin after adding 20 mM succinic acid, 4 hours): 2.06%
bacterial survival rate [1, 6]: 69.23%
bactericidal efficiency [1, 6]: 1.07 times
bacterial survival rate [1, 7]: 1.19%
bactericidal efficiency [1, 7]: 61 times
survival rate ([1]; YT16, 10 mg/mL ampicillin after adding 20 mM succinic acid, 4 hours (FIG. 1)): 0.41%
survival rate ([1]; YT16, 10 mg/mL ampicillin and 20 mM succinic acid, 1 hour (FIG. 2)): 71.54%
survival rate ([1]; YT16, 10 mg/mL ampicillin and 20 mM succinic acid, 4 hours (FIG. 2)): 0.78%
survival rate ([1]; YT16, 10 mg/mL ampicillin and 20 mM succinic acid, 7 hours (FIG. 2)): 0.01%
increase of sensitivity to penicillin G sodium salt ([1]; YT16, 20 mM succinic acid + 0.5 mg/mL penicillin G sodium salt, 4 hours): 4.96 times
increase of sensitivity to penicillin G sodium salt ([1]; YT16, 20 mM succinic acid + 0.75 mg/mL penicillin G sodium salt, 4 hours): 5.13 times
increase of sensitivity to carbenicillin ([1]; YT16, 20 mM succinic acid + 1.25 mg/mL carbenicillin, 4 hours): 1.99 times
increase of sensitivity to carbenicillin ([1]; YT16, 20 mM succinic acid + 2.5 mg/mL carbenicillin, 4 hours): 11.65 times
increase of sensitivity to amoxicillin ([1]; YT16, 20 mM succinic acid + 5 mg/mL amoxicillin, 4 hours): 15.86 times
increase of sensitivity to amoxicillin ([1]; YT16, 20 mM succinic acid + 7.5 mg/mL amoxicillin, 4 hours): 3.37 times
bactericidal efficiency ([1]; YT16, 20 mM succinic acid + 10 mg/mL ampicillin vs ampicillin only, at 1 hour (FIG. 2)): 1.33 time
bactericidal efficiency ([1]; YT16, 20 mM succinic acid + 10 mg/mL ampicillin vs ampicillin only, at 4 hours (FIG. 2)): 60.66 times
bactericidal efficiency ([1]; YT16, 20 mM succinic acid + 10 mg/mL ampicillin vs ampicillin only, at 7 hours (FIG. 2)): 1744.19 times
bactericidal efficiency increase ([1]; YT16, 20 mM succinic acid added to 2.5 mg/mL ampicillin, 4 hours, vs ampicillin alone): more than 2 times
bactericidal efficiency increase ([1]; YT16, 20 mM succinic acid added to 5 mg/mL ampicillin, 4 hours, vs ampicillin alone): 16.75 times
bactericidal efficiency increase ([1]; YT16, 20 mM succinic acid added to 10 mg/mL ampicillin, 4 hours, vs ampicillin alone (FIG. 1)): 62.25 times
bactericidal efficiency increase ([1]; YT16, 20 mM succinic acid added to 20 mg/mL ampicillin, 4 hours, vs ampicillin alone): 105.96 times
enhancement of sensitivity to different kinds of antibiotics ([1]; YT16, 20 mM succinic acid with gentamicin, ciprofloxacin, tetracycline, erythromycin, clindamycin or rifampin, 4 hours (FIG. 6)): about 2 times
survival rate ([1]; YT16, 20 mg/mL ampicillin after adding 20 mM succinic acid, 4 hours): 0.12%
survival rate ([1]; YT28, 2.5 mg/mL ampicillin after adding 20 mM succinic acid, 4 hours): 41.62%
survival rate ([1]; YT28, 5 mg/mL ampicillin after adding 20 mM succinic acid, 4 hours): 12.71%
bacterial survival rate [1, 8]: 80.31%
bactericidal efficiency [1, 8]: 1.07 times
bacterial survival rate [1, 9]: 4.24%
bactericidal efficiency [1, 9]: 20 times
survival rate ([1]; YT28, 10 mg/mL ampicillin after adding 20 mM succinic acid, 4 hours (FIG. 1)): 1.7%
survival rate ([1]; YT28, 10 mg/mL ampicillin and 20 mM succinic acid, 1 hour (FIG. 2)): 66.81%
survival rate ([1]; YT28, 10 mg/mL ampicillin and 20 mM succinic acid, 4 hours (FIG. 2)): 1.25%
survival rate ([1]; YT28, 10 mg/mL ampicillin and 20 mM succinic acid, 7 hours (FIG. 2)): 0.18%
increase of sensitivity to penicillin G sodium salt ([1]; YT28, 20 mM succinic acid + 0.5 mg/mL penicillin G sodium salt, 4 hours): 2.66 times
increase of sensitivity to penicillin G sodium salt ([1]; YT28, 20 mM succinic acid + 0.75 mg/mL penicillin G sodium salt, 4 hours): 9.34 times
increase of sensitivity to carbenicillin ([1]; YT28, 20 mM succinic acid + 1.25 mg/mL carbenicillin, 4 hours): 1.8 times
increase of sensitivity to carbenicillin ([1]; YT28, 20 mM succinic acid + 2.5 mg/mL carbenicillin, 4 hours): 15.85 times
increase of sensitivity to amoxicillin ([1]; YT28, 20 mM succinic acid + 5 mg/mL amoxicillin, 4 hours): 13.94 times
increase of sensitivity to amoxicillin ([1]; YT28, 20 mM succinic acid + 7.5 mg/mL amoxicillin, 4 hours): 31.85 times
bactericidal efficiency ([1]; YT28, 20 mM succinic acid + 10 mg/mL ampicillin vs ampicillin only, at 1 hour (FIG. 2)): 1.44 time
bactericidal efficiency ([1]; YT28, 20 mM succinic acid + 10 mg/mL ampicillin vs ampicillin only, at 4 hours (FIG. 2)): 21.45 times
bactericidal efficiency ([1]; YT28, 20 mM succinic acid + 10 mg/mL ampicillin vs ampicillin only, at 7 hours (FIG. 2)): 78.34 times
bactericidal efficiency increase ([1]; YT28, 20 mM succinic acid added to 2.5 mg/mL ampicillin, 4 hours, vs ampicillin alone): more than 1.65 times
bactericidal efficiency increase ([1]; YT28, 20 mM succinic acid added to 5 mg/mL ampicillin, 4 hours, vs ampicillin alone): 4.42 times
bactericidal efficiency increase ([1]; YT28, 20 mM succinic acid added to 10 mg/mL ampicillin, 4 hours, vs ampicillin alone (FIG. 1)): 21.06 times
bactericidal efficiency increase ([1]; YT28, 20 mM succinic acid added to 20 mg/mL ampicillin, 4 hours, vs ampicillin alone): 34.48 times
survival rate ([1]; YT28, 20 mg/mL ampicillin after adding 20 mM succinic acid, 4 hours): 0.79%
clearance of clinical Escherichia coli on the biofilms, used alone [2]: cannot clear
bactericidal efficiency increase on catheter biofilm ([3]; i.p. 590 mg/kg succinic acid + ampicillin (2000 or 500 mg/kg) twice a day for 3 days vs ampicillin group, 1st of the 9 strains (YT3 by order of b93)): 14 times
bactericidal efficiency increase on catheter biofilm ([3]; i.p. 590 mg/kg succinic acid + ampicillin twice a day for 3 days vs ampicillin group, 2nd of the 9 strains (YT11 by order of b93)): 5 times
bactericidal efficiency increase on catheter biofilm ([3]; i.p. 590 mg/kg succinic acid + ampicillin twice a day for 3 days vs ampicillin group, 3rd of the 9 strains (YT12 by order of b93)): 53 times
bactericidal efficiency increase on catheter biofilm ([3]; i.p. 590 mg/kg succinic acid + ampicillin twice a day for 3 days vs ampicillin group, 4th of the 9 strains (YT16 by order of b93)): 30 times
bactericidal efficiency increase on catheter biofilm ([3]; i.p. 590 mg/kg succinic acid + ampicillin twice a day for 3 days vs ampicillin group, 5th of the 9 strains (YT17 by order of b93)): 5 times
bactericidal efficiency increase on catheter biofilm ([3]; i.p. 590 mg/kg succinic acid + ampicillin twice a day for 3 days vs ampicillin group, 6th of the 9 strains (YT21 by order of b93)): 9 times
bactericidal efficiency increase on catheter biofilm ([3]; i.p. 590 mg/kg succinic acid + ampicillin twice a day for 3 days vs ampicillin group, 7th of the 9 strains (YT22 by order of b93)): 38 times
bactericidal efficiency increase on catheter biofilm ([3]; i.p. 590 mg/kg succinic acid + ampicillin twice a day for 3 days vs ampicillin group, 8th of the 9 strains (YT23 by order of b93)): 17 times
bactericidal efficiency increase on catheter biofilm ([3]; i.p. 590 mg/kg succinic acid + ampicillin twice a day for 3 days vs ampicillin group, 9th of the 9 strains (YT28 by order of b93)): 53 times
increase of the number of antibiotics (ampicillin) in the bacteria ([4]; YT16, ampicillin and succinic acid vs only ampicillin): 5.97 times
increase of the number of antibiotics (ampicillin) in the bacteria ([4]; YT28, ampicillin and succinic acid vs only ampicillin): 7.99 times
increase of proton motive force of the bacteria ([5]; YT16, succinic acid added vs control without): 1.2 times
increase of proton motive force of the bacteria ([5]; YT28, succinic acid added vs control without): 1.45 times
